In patent US10780067B2, “Endoxifen for local transdermal therapy to the breast” (Northwestern University, priority 2016, dated 2020):

Columns and labels:
factor IX = assay: Plasma factor IX antigen ELISA, presurgical trial; assay type: in vivo, human; details: mean ± SD
Experimental: (§1) Plasma samples collected with anticoagulant K3-EDTA were used for human IGF-1 and SHBG assays, and coagulation protein assays (factor VIII, factor IX, von Willebrand factor, and protein S)[23]. The human IGF-1 and SHBG assays were performed with Quantikine Enzyme-linked immunosorbent assay (ELISA) Kits (R&D Systems, Cat # DG100 for IGF-1, and Cat # DSHBGO for SHBG assay). The lower limit of detection was 56 pg/ml, and 5 pmol/L; % CV values were 4.3 and 5.6 for IGF-1, and SHBG assay, respectively. Factor VIII, and factor IX were determined with VisuLize™ antigen ELISA kits (Affinity Biologicals Inc.). von Willebrand factor was measured with immune-turbidimetric assay (Diagnostica Stago Inc. Cat #00518) by STAR analyzer, and total protein S was assayed with an ELISA kit (REAADSR Inc.)

[1] = Study 1: oral tamoxifen vs transdermal 4-OHT and endoxifen gel, mammary and plasma concentrations; details: for concentration at 6 weeks: athymic nude (Hsd:RHFoxn1^rnu/rnu), rat, oral, 3 mg/kg/day
Experimental: (Z) tamoxifen was prepared as 3 mg/mL in sesame oil. For transdermal gel formulations, 4-OHT (E:Z=50:50) (1 mg/mL), (Z) endoxifen (1 mg/mL), and telapristone (1.5 mg/mL) were prepared in 60% (v/v) ethanol-phosphate buffer containing 0.5% (v/v) oleic acid [13] with 1.5% (w/v) Klucel hydroxypropyl cellulose.
Athymic nude rats (Hsd:RHFoxn1^rnu/rnu, Harlan Laboratories, Inc.) were provided with standard laboratory food and water ad libitum. […] In the gel groups, animals were anesthetized with isoflurane inhalation; the skin surface of axillary mammary glands was cleaned with alcohol swabs and air-dried; 0.1 mL drug gel was applied using a template with an exposed ellipse (π×R1×R2=π1 cm×0.6 cm) around the no. 2 nipple on each side and allowed to dry (total of 1, 0.5 mg/kg/day on each side); animals wore jackets fitted over the forelegs, to prevent loss of gel through grooming.
In both studies, rats were euthanized after 6 weeks of treatment for blood and tissue collections. The treated skin area was cleansed with alcohol prior to dissection. Blood samples were collected from the heart. We collected the whole mammary glands (1 axillary and 1 inguinal) per animal and measured their drug concentrations separately.
The concentrations of all the drugs used in rats and humans were determined by liquid chromatography-tandem mass spectroscopy (API 3000; AB SCIEX, Foster City, Calif., USA). […] The mobile phase was A: 0.1% formic acid in water (v/v) and B: 0.1% formic acid in acetonitrile (v/v). Details of sample processing and quantitation methods are described below. The lowest limits of quantification (LLOQ) were as follow: tamoxifen and N-desmethyl tamoxifen (NDT) (plasma 10 ng/mL; tissue 40 ng/g); 4-OHT and endoxifen (plasma 0.5 ng/mL; tissue 2 ng/g); telapristone and N-desmethyl telapristone (d-telapristone) (plasma 1 ng/mL; tissue 1.5 ng/g); and diclofenac (plasma 0.5 ng/mL; tissue 2 ng/g).
For preclinical studies, the summary statistics as medians and interquartile range (IQR) were reported by treatment group for each analyte obtained from plasma, axillary, and inguinal mammary glands. Concentration differences of each analyte between treatment groups and differences between mammary glands within each treatment group were assessed via the Wilcoxon rank-sum test, and the Wilcoxon signed rank-sum test, respectively.
(Z) tamoxifen and metabolites [(Z) NDT, (E) 4-OHT, and (Z) 4-OHT, (Z) endoxifen] were determined using LC-MS/MS (API 3000; AB SCIEX, Foster City, Calif.). A 100 μL aliquot of plasma was mixed with 200 μL of acetonitrile containing 1 ng each of the deuterated analogs of the analytes (TRC, Toronto, Canada). […]

[2] = oral-T vs 4-OHT gel 2 mg daily, 2-3 weeks; cited from earlier work
COX-2 = COX-2 expression (H score) by immunohistochemistry, presurgical trial; assay type: in vivo, human; details: mean ± SD
Experimental: (§2) Assessments similar to those performed at baseline were repeated on the day prior to, or on the morning of surgery. During surgery, breast adipose tissue from the surgical sample was snap frozen and stored at −80° C. for measurement of tamoxifen and metabolites. The samples were obtained from a location adjacent to the DCIS lesion to provide uniformity between participants undergoing breast conservation and mastectomy. The paraffin block of the core and excision samples were acquired by the recruiting institution and 10 sections from each specimen were submitted to the NU Pathology Core Facility. The sections were cut in batches (with pre- and post-treatment samples in the same batch), shipped cold, and processed for immunohistochemistry within four weeks.
(§3) Secondary endpoints were 1) to compare concentrations of tamoxifen and its metabolites [4-OHT, endoxifen, N-desmethyl tamoxifen (NDT)] in breast tissue, plasma and NAF obtained on the day of surgery; 2) to assess changes in known tamoxifenmodulated pathways in the breast (COX-2 and maspin protein expression, [19,20]) and plasma (SHBG, IGF-1 [14]). Side effect endpoints were 1) the incidence of hot flashes at baseline and before surgery; 2) changes in coagulation related proteins in women on the gel and the oral arms from baseline to immediately before surgery.
(§4) Immunohistochemical (IHC) assessment of these markers was performed on paraffin embedded sections of the core and excision specimens, using standard IHC techniques and MCF7, HCT116 and H292 cells as controls. For maspin we used primary mouse monoclonal antibody (Clone-G167-70,BD Pharmingen, San Jose, Calif.), dilution 1:200; for COX-2, primary mouse monoclonal antibody (Clone-CX-294, Dako, Denmark), dilution 1:100-; and for Ki67, primary mouse monoclonal antibody (Clone-MIB-1, Dako, Denmark), dilution 1:100-antigen. Dako Envision Plus system HRP labeled polymer for 20 min at 37° C. was used as the detection system. […] The Ki67 LI was assessed on an average of 300 DCIS cells at 40× magnification. […]

[3] = 28 days; cited from earlier work
maspin = assay: Maspin expression (H score) by immunohistochemistry, presurgical trial; assay type: in vivo, human; details: mean ± SD
Experimental: as §2, §3, §4

factor VIII = assay: Plasma factor VIII antigen ELISA, presurgical trial; assay type: in vivo, human; details: mean ± SD
Experimental: as §1

von Willebrand factor = assay: Plasma von Willebrand factor immuno-turbidimetric assay, presurgical trial; assay type: in vivo, human; details: mean ± SD
Experimental: as §1

total protein S = assay: Plasma total protein S ELISA, presurgical trial; assay type: in vivo, human; details: mean ± SD
Experimental: as §1

MCF7 xenograft = details: simulation using human PK; cited from earlier work
DCIS lesions = assay: Ki-67 labeling index by immunohistochemistry, phase II presurgical trial of 4-OHT gel vs oral tamoxifen; assay type: in vivo, human; details: for Ki-67 baseline: Ki-67 LI of DCIS lesions before treatment
Text: Women at risk for thromboembolic disease were excluded, as were those with a history of exogenous hormone use within the past month, and tamoxifen or raloxifene use within the past two years. Randomization was stratified by menopausal status, and enrollment site. Initially, the FDA required exclusions for grade 3 and comedo-type DCIS, mammographic DCIS size of >5 cm, and palpable lesions; these were removed following enrollment of nine subjects in the first year.
All participants provided informed consent. Baseline assessments included a history and physical, explanation of gel application, completion of the Breast Cancer Prevention Trial Eight Symptom Scale (BESS) questionnaire, collection of a venous blood sample, and collection of nipple aspirate fluid (NAF) from NAF yielders. […] Treatment began within 5 days post-randomization and ended on the day prior to surgical resection. Participants were instructed to apply the gel to the entire skin envelope of each breast each morning, after a shower. Duration of therapy was 6-10 weeks. Compliance was assessed through participant diaries, counts of returned pills and of returned gel canisters. Participants who took at least 80% of the prescribed dose were considered compliant.
as §2, §3
Immunohistochemical (IHC) assessment of these markers was performed on paraffin embedded sections of the core and excision specimens, using standard IHC techniques and MCF7, HCT116 and H292 cells as controls. For maspin we used primary mouse monoclonal antibody (Clone-G167-70,BD Pharmingen, San Jose, Calif.), dilution 1:200; for COX-2, primary mouse monoclonal antibody (Clone-CX-294, Dako, Denmark), dilution 1:100-; and for Ki67, primary mouse monoclonal antibody (Clone-MIB-1, Dako, Denmark), dilution 1:100-antigen. Dako Envision Plus system HRP labeled polymer for 20 min at 37° C. was used as the detection system. Scoring was performed on DCIS lesions only, with manual counting of positively stained DCIS cells. The Ki67 LI was assessed on an average of 300 DCIS cells at 40× magnification. The H score system (Score range: 0-300) was used for COX-2 and maspin markers by a single observer who was blinded to treatment status, with random verification of 20% of slides by a pathologist (PK).

For CC/C(=C(\c1ccccc1)c1ccc(OCCN(C)C)cc1)c1ccccc1 [Tamoxifen, (Z)-tamoxifen], which “% Factor IX post-treatment” value (factor IX; plasma after 6-10 weeks) is on record?
Its value is 87.0 ± 12.2%.

And the “% Factor IX baseline” value (factor IX; plasma before treatment)?
Its value is 86.6 ± 8.8%.

What about the “% Factor IX Changes from baseline” value (factor IX; plasma) of the same molecule?
The value was 0.4 ± 10.2%.

And the concentration at 6 weeks ([1]; axillary mammary gland)?
Its concentration at 6 weeks is 44.2 ng/g.

And the concentration at 6 weeks ([1]; inguinal mammary gland)?
The concentration at 6 weeks was 69.6 ng/g.

What about the concentration at 6 weeks ([1]; plasma) of the same molecule?
Its concentration at 6 weeks is 8 ng/mL.

And the “deaths, weight loss, general health, skin irritation” value ([1]; rats, end of 6 week experiment)?
Its value is “no deaths, no weight loss, and no skin irritation”.

What about the “median 4-OHT concentration in nontumor breast tissue (previous study)” value [2] of the same molecule?
The value was 2.0 ng/g.

What about the COX-2 post-treatment (COX-2; DCIS lesions after 6-10 weeks) of the same molecule?
The COX-2 post-treatment was 78.9 ± 63.5 H-score.

What about the COX-2 baseline (COX-2; DCIS lesions before treatment) of the same molecule?
Its COX-2 baseline is 67.2 ± 72.4 H-score.

What about the “COX-2 Changes from baseline” value (COX-2; DCIS lesions, 6-10 weeks) of the same molecule?
The value was 11.7 ± 109.8 H-score.

What about the “ENX concentration in serum, oral TAM 1 mg daily” value [3] of the same molecule?
The value was 3 ng/mL.

What about the “ENX concentration in serum, oral TAM 5 mg daily” value [3] of the same molecule?
Its value is 9 ng/mL.

And the “ENX concentration in serum, oral TAM 20 mg daily” value [3]?
Its value is 38 ng/mL.

What about the “ENX concentration in tumor tissue, oral TAM 1 mg daily” value [3] of the same molecule?
Its value is 31 ng/g.

And the “ENX concentration in tumor tissue, oral TAM 5 mg daily” value [3]?
Its value is 80 ng/g.

What about the “ENX concentration in tumor tissue, oral TAM 20 mg daily” value [3] of the same molecule?
The value was 340 ng/g.

And the Maspin post-treatment (maspin; DCIS lesions after 6-10 weeks)?
The Maspin post-treatment was 142 ± 69 H-score.

And the Maspin baseline (maspin; DCIS lesions before treatment)?
The Maspin baseline was 107 ± 56 H-score.

And the “Maspin Changes from baseline” value (maspin; DCIS lesions, 6-10 weeks)?
Its value is 35 ± 71 H-score.

What about the “% Factor VIII post-treatment” value (factor VIII; plasma after 6-10 weeks) of the same molecule?
Its value is 168.7 ± 51.6%.

And the “% Factor VIII baseline” value (factor VIII; plasma before treatment)?
Its value is 157.1 ± 47.5%.

What about the “% Factor VIII Changes from baseline” value (factor VIII; plasma) of the same molecule?
Its value is 11.6 ± 17.3%.

What about the “% vWF post-treatment” value (von Willebrand factor; plasma after 6-10 weeks) of the same molecule?
The value was 218.6 ± 134.6%.

What about the “% vWF baseline” value (von Willebrand factor; plasma before treatment) of the same molecule?
Its value is 167.4 ± 89.2%.

What about the “% vWF Changes from baseline” value (von Willebrand factor; plasma) of the same molecule?
The value was 51.2 ± 71.0%.

What about the “% Total Protein S post-treatment” value (total protein S; plasma after 6-10 weeks) of the same molecule?
The value was 91.6 ± 12.2%.

What about the “% Total Protein S baseline” value (total protein S; plasma before treatment) of the same molecule?
The value was 94.3 ± 8.9%.

And the “% Total Protein S Changes from baseline” value (total protein S; plasma)?
Its value is −2.7 ± 9.3%.

And the “TGI at day 21, 20 mg/day oral” value (MCF7 xenograft)?
The value was 63%.

What about the Ki-67 post-treatment (DCIS lesions; Ki-67 LI of DCIS lesions after 6-10 weeks, mean ± SD) of the same molecule?
Its Ki-67 post-treatment is 3.2 ± 2.3%.

What about the Ki-67 baseline (DCIS lesions; mean ± SD) of the same molecule?
Its Ki-67 baseline is 8.3%.

And the Ki-67 baseline (DCIS lesions; mean ± SD, listed as Oral-T)?
Its Ki-67 baseline is 8.3 ± 5.2%.

What about the “Ki-67 Changes from baseline” value (DCIS lesions; Ki-67 LI of DCIS lesions, 6-10 weeks, mean ± SD) of the same molecule?
The value was −5.1 ± 5.5%.

And the “mean reduction of Ki-67 LI post-therapy” value (DCIS lesions; decrease from baseline in DCIS lesions, 6-10 weeks)?
Its value is 5.1%.

And the “drop in Ki67-LI relative to baseline” value (DCIS lesions; relative decrease, DCIS lesions)?
Its value is 61%.
